Test results from ChEMBL document CHEMBL3137440, “DNDi T. cruzi fenarimol series dataset from which preclinical candidate EPL-BS0967 was identified (see also related datasets: CHEMBL3137386 and CHEMBL2448688)”.
pIC50: −log10 of the molar value. In brackets after ≈: the same amount, converted by molar mass.

Assays:
[1] = in vitro; details: human, microsomes
[2] = DNDI: Lipophilicity (gLogD) at pH 7.4; details: buffer
[3] = system: Trypanosoma cruzi; assay: (§1) DNDI: Chagas in Vitro; type: functional, Tulahuen C4 (LacZ)
[4] = DNDI: Cytotoxicity against L-6 rat myoblasts from skeletal musclE; details: L6 rat skeletal muscle myoblasts, IC50
[5] = DNDI: Solubility in phosphate buffer at pH 6.5 determined by nephelometry
[6] = in vitro; details: human, microsomes; remark: listed apart in the source
[7] = system: Trypanosoma cruzi; assay: as §1; type: functional, organism-based, Tulahuen C4 (LacZ)
[8] = DNDI: Solubility in 0.01M HCl at pH 2 determined by nephelometry
[9] = DNDI: Lipophilicity (gLogD) at pH 3; details: buffer
[10] = in vitro; details: human, microsomes; remark: listed apart in the source
[11] = Trypanosoma cruzi, Tulahuen C4 (LacZ)

IC90 [3, 11] [nM] | solubility kinetic [5] [µg/mL] | pIC50 [7, 11] | solubility kinetic [8] [µg/mL] | SMILES | pIC50 [4] | also measured
27 | < 1.6 | 7.82 | > 100 | FC(F)(F)c1ccc(N(c2cccnc2)C2CCN(c3ccc(Cl)cc3)CC2)cc1 | < 4.00 | microsomal CLint [1]: 34 µL/min/mg; chromatographic logD ([2]; pH 7.4): > 5.3; IC90 [3]: 25 nM; half-life [6]: 51 min; pIC50 [7]: 7.66; chromatographic logD ([9]; pH 3): > 5.3
30 | < 1.6 | 7.85 | > 100 | FC(F)(F)c1ccc(N(c2cccnc2)C2CCN(c3ccccc3)CC2)cc1 | 4.24 | microsomal CLint [1]: 58.4 µL/min/mg; chromatographic logD ([2]; pH 7.4): > 5.3; half-life [6]: 29.7 min; chromatographic logD ([9]; pH 3): 4.7
28 | < 1.6 | 7.66 | > 100 | Fc1cnc(N2CCC(N(c3ccc(C(F)(F)F)cc3)c3cccnc3)CC2)nc1 | 4.27 | microsomal CLint [1]: 36 µL/min/mg; chromatographic logD ([2]; pH 7.4): 4.9; half-life [6]: 49 min; chromatographic logD ([9]; pH 3): 4.2
32 | – | – | – | FC(F)(F)c1ccc(N(c2cccnc2)C2CCN(c3ccc(C(F)(F)F)nc3)CC2)cc1 | – | –
23 | 1.6 (≈ 4.01 µM) | 7.77 | > 100 | FC(F)(F)c1ccc(N(c2cccnc2)C2CCN(c3ncccn3)CC2)cc1 | 4.27 | microsomal CLint [1]: 196 µL/min/mg; chromatographic logD ([2]; pH 7.4): 4.4; half-life [6]: 8.8 min; chromatographic logD ([9]; pH 3): 3.5
28 | – | 8.00 | – | CN(C)S(=O)(=O)c1ccccc1N1CCC(N(c2ccc(C#N)cc2)c2cccnc2)CC1 | – | –
9.9 | – | 8.29 | – | CC(C)(C)OC(=O)N1CCC(N(c2ccc(C(F)(F)F)cc2)c2cccnc2)CC1 | 4.65 | –
6.6 | 1.6 (≈ 3.7 µM) | 8.63 | – | CS(=O)(=O)c1ccc(N2CCC(N(c3ccc(C#N)cc3)c3cccnc3)CC2)cc1 | < 4.00 | hepatic extraction ratio [10]: 0.47; microsomal CLint [1]: 15.6 µL/min/mg; chromatographic logD ([2]; pH 7.4): 3; half-life [6]: 111 min; chromatographic logD ([9]; pH 3): 2.7
11 | – | 8.22 | – | CN(C)S(=O)(=O)c1cc(C(F)(F)F)ccc1N1CCC(N(c2ccc(C#N)cc2)c2cccnc2)CC1 | < 4.00 | –
51 | – | 7.62 | – | FC(F)(F)c1ccc(N(c2cccnc2)C2CCN(c3ccccn3)CC2)cc1 | – | –
36 | – | 7.82 | – | FC(F)(F)c1ccc(N(c2cccnc2)C2CCN(c3ccccc3C(F)(F)F)CC2)cc1 | – | –
83 | – | 7.41 | – | FC(F)(F)c1ccc(N(c2cccnc2)C2CCN(c3ccc(Cl)cn3)CC2)cc1 | – | –
9 | – | 8.70 | – | O=C(c1c(F)cccc1F)N1CCC(N(c2ccc(C(F)(F)F)cc2)c2cccnc2)CC1 | 4.31 | –
4 | – | 8.70 | – | N#Cc1ccc(N(c2cccnc2)C2CCN(c3ccc(C(F)(F)F)cc3C#N)CC2)cc1 | < 4.00 | –
3.26 | – | 8.99 | – | CC(C)(C)OC(=O)N1CCC(N(c2ccc(Cl)cc2)c2cccnc2)CC1 | 4.28 | –
27 | – | 8.05 | – | Cc1cncc(N2CCC(N(c3ccc(C(F)(F)F)cc3)c3cccnc3)CC2)c1 | – | –
31 | 1.6 (≈ 3.96 µM) | – | > 100 | FC(F)(F)c1ccc(N(c2cccnc2)C2CCN(c3nccs3)CC2)cc1 | 4.38 | microsomal CLint [1]: 161 µL/min/mg; chromatographic logD ([2]; pH 7.4): 4.3; half-life [6]: 10.8 min; chromatographic logD ([9]; pH 3): 3.1
340 | – | 6.82 | – | Cc1ccc(N2CCC(N(c3ccc(C(F)(F)F)cc3)c3cccnc3)CC2)cn1 | < 4.00 | –
– | – | – | – | FC(F)(F)c1ccc(N(c2cccnc2)C2CCN(c3ccc(C(F)(F)F)cn3)CC2)cc1 | – | IC90 [3]: > 100 nM; pIC50 [7]: 7.71
16.6 | – | 8.13 | – | O=C(c1ccccc1)N1CCC(N(c2ccc(C(F)(F)F)cc2)c2cccnc2)CC1 | – | –
11 | 3.1 (≈ 6.65 µM) | 8.15 | < 1.6 | FC(F)(F)c1ccc(N2CCC(N(c3ccc(C(F)(F)F)cc3)c3cncnc3)CC2)cc1 | 4.12 | microsomal CLint [1]: 67.5 µL/min/mg; chromatographic logD ([2]; pH 7.4): 5.2; half-life [6]: 25.7 min; chromatographic logD ([9]; pH 3): > 5.3
312 | – | 6.68 | – | FC(F)(F)c1ccc(N(c2cccnc2)C2CCN(c3cccc(C(F)(F)F)c3)CC2)cc1 | < 4.00 | –

SMILES | IC90 [3, 11] [nM] | solubility kinetic [5] [µg/mL] | pIC50 [7, 11] | solubility kinetic [8] [µg/mL] | pIC50 [4] | also measured
CC(C)(O)CN1CCC(N(c2ccc(C#N)cc2)c2cccnc2)CC1 | 71 | > 100 | 7.57 | > 100 | < 4.00 | microsomal CLint ([1]; CLint): 12.2 µL/min/mg; chromatographic logD ([2]; pH 7.4, logD): 2.2; half-life ([6]; t (1 / 2)): 142 min; chromatographic logD ([9]; pH 3, logD): 0.7
COc1ccc(CN2CCC(N(c3ccc(C(F)(F)F)cc3)c3cccnc3)CC2)cc1 | 92 | 6.3 (≈ 14.3 µM) | 7.24 | > 100 | 4.79 | microsomal CLint ([1]; CLint): 56 µL/min/mg; chromatographic logD ([2]; pH 7.4, logD): 4.9; half-life ([6]; t (1 / 2)): 31 min; chromatographic logD ([9]; pH 3, logD): 2
Cc1cccc(CN2CCC(N(c3ccc(C(F)(F)F)cc3)c3cccnc3)CC2)c1 | 79 | – | 7.36 | – | 4.37 | –
Fc1ccccc1CN1CCC(N(c2ccc(C(F)(F)F)cc2)c2cccnc2)CC1 | 40 | – | 7.68 | – | – | –
COc1cccc(CN2CCC(N(c3ccc(C(F)(F)F)cc3)c3cccnc3)CC2)c1 | 90 | – | 7.25 | – | 4.43 | –
FC(F)(F)c1ccc(N(c2cccnc2)C2CCN(Cc3ccccc3C(F)(F)F)CC2)cc1 | 36 | 1.6 (≈ 3.34 µM) | 8.05 | > 100 | – | microsomal CLint ([1]; CLint): 92.8 µL/min/mg; chromatographic logD ([2]; pH 7.4, logD): > 5.3; half-life ([6]; t (1 / 2)): 18.7 min; chromatographic logD ([9]; pH 3, logD): 2.7
FC(F)(F)c1ccc(N(c2cccnc2)C2CCN(Cc3cccc(C(F)(F)F)c3)CC2)cc1 | 72 | 3.1 (≈ 6.47 µM) | 7.42 | > 100 | 4.28 | microsomal CLint ([1]; CLint): 66 µL/min/mg; chromatographic logD ([2]; pH 7.4, logD): > 5.3; half-life ([6]; t (1 / 2)): 26 min; chromatographic logD ([9]; pH 3, logD): 2.5
Cc1ccccc1CN1CCC(N(c2ccc(C(F)(F)F)cc2)c2cccnc2)CC1 | 19 | – | 8.15 | > 100 | – | microsomal CLint ([1]; CLint): 123 µL/min/mg; chromatographic logD ([2]; pH 7.4, logD): > 5.3; half-life ([6]; t (1 / 2)): 14.1 min; chromatographic logD ([9]; pH 3, logD): 2
Cc1ccc(CN2CCC(N(c3ccc(C(F)(F)F)cc3)c3cccnc3)CC2)cc1 | > 100 | – | 7.17 | – | 4.34 | –
CC(C)(O)CN1CCC(N(c2ccc(C(F)(F)F)cc2)c2cccnc2)CC1 | 30 | – | 7.96 | – | – | –
CC(C)(C)N1CCC(N(c2ccc(C(F)(F)F)cc2)c2cccnc2)CC1 | 1070 | – | 6.22 | – | – | –
FC(F)(F)c1ccc(CN2CCC(N(c3ccc(C(F)(F)F)cc3)c3cccnc3)CC2)cc1 | 80 | – | 7.48 | – | – | –
